This passage reports inhibition in vivo, Activity and Ratio results from ChEMBL document CHEMBL1152151, “Synthesis and preliminary pharmacological evaluation of N-2-(4-(4-(2-substitutedthiazol-4-yl) piperazin-1-yl)-2-oxoethyl)acetamides as novel atypical antipsychotic agents” (Bioorg Med Chem Lett, 2008).

Calls of active or inactive are those of the source. The calls are words filed in the database; no cut-off is given here.

In series [1] the test system is Mus musculus. Description: Inhibition of dopamine D2 receptor-mediated apomorphine-induced cage climbing behavior in Swiss albino mouse at 10 mg/kg measured on 10 mins. It counts as functional.
Series [2] deals with Mus musculus. Description: Inhibition of dopamine D2 receptor-mediated apomorphine-induced cage climbing behavior in Swiss albino mouse at 10 mg/kg. It counts as functional.
The species entered for series [3] is Mus musculus. Description: Toxic cataleptic effect against Swiss albino mouse. It counts as toxicity, organism-based. The settings on record: in vivo.
The test system of series [4] is Mus musculus. The series can be described thus: Inhibition of dopamine D2 receptor-mediated apomorphine-induced cage climbing behavior in Swiss albino mouse at 10 mg/kg measured on 20 mins. The class given is functional.
The subject of series [5] is Mus musculus. Description: Ratio of inhibition of quipazine-induced head twitches to inhibition of apomorphine-induced cage climbing behavior in Swiss albino mouse at 10 mg/kg. It counts as functional.
For series [6], the species on record is Mus musculus. The series can be described thus: Toxic cataleptic effect in Swiss albino mouse assessed as maximum average cataleptic time. The class given is toxicity, organism-based. The settings on record: in vivo.
Series [7] has as its system Mus musculus. The series can be described thus: Inhibition of 5HT2A receptor-mediated quipazine-induced head twitches in Swiss albino mouse at 10 mg/kg. The class given is functional.
The test system of series [8] is Mus musculus. Description: Inhibition of dopamine D2 receptor-mediated apomorphine-induced cage climbing behavior in Swiss albino mouse at 10 mg/kg measured on 30 mins. It counts as functional. The settings on record: 0.5 h.
Series [9] concerns Mus musculus. Description: Inhibition of dopamine D2 receptor-mediated apomorphine-induced cage climbing behavior in Swiss albino mouse at 1 mg/kg, ip. Further details: dose 1 mg/kg. The class given is functional, organism-based.
Series [10] relates to Mus musculus. The series can be described thus: Inhibition of 5HT2A receptor-mediated quipazine-induced head twitches in Swiss albino mouse at 0.6 mg/kg, ip. The class given is functional, organism-based. Further details: dose 0.6 mg/kg.

Usually inhibition in vivo stands for the percentage by which the read-out fell short of the control. Read a low inhibition in vivo as a weak effect. On to `CC(=O)NCC(=O)N1CCN(CCc2ccc(-c3csc(C)n3)cc2)CC1`, for which the inhibition in vivo at 10 mg/kg came to 70% in series [1]; 70% in series [2]; 65% in [4]; 20% in series [7]; 70% in series [8]. Also, the values for the Activity entry in series [3] and in series [6] were “Non-toxic” and 4.62 s, respectively. In addition, in series [5], the Ratio came to 0.2857.

With `O=C(CCCN1CCC(O)(c2ccc(Cl)cc2)CC1)c1ccc(F)cc1`, in series [9], the result was Active.

On to `CNc1nc(-c2ccc(CCN3CCN(C(=O)CNC(C)=O)CC3)cc2)cs1`, for which the inhibition in vivo at 10 mg/kg is 60% in [1]; 60% in [2]; 50% in [4]; 54% in series [7]; 60% in series [8]. Besides, the Activity result in series [3] is “Non-toxic”; in [6], 16.54 s. For the same molecule, the Ratio in series [5] turned out to be 0.9.

As to `CC(=O)NCC(=O)N1CCN(CCc2ccc(-c3nc(C)sc3C)cc2)CC1`, the inhibition in vivo at 10 mg/kg was determined as 65% in series [1]; 80% in series [2]; 65% in [4]; 71% in [7]; 80% in [8]. The Activity entry is recorded as “Non-toxic” in [3] and 5.12 s in series [6]. For the same molecule, the Ratio in series [5] was 0.8875.

On to `Cc1nc2n(c(=O)c1CCN1CCC(c3noc4cc(F)ccc34)CC1)CCCC2` [RISPERIDONE], for which the inhibition in vivo at 10 mg/kg in series [1] turned out to be 91%; in [2] it was 91%; in series [4], 91%; in [7], 100%; in [8], 90%. The Activity result in series [3] is given as “Non-toxic”; in series [6], 2.54 s. Further, in series [5], the Ratio stood at 1.0989. For the same molecule, the result in series [10] was Active.
